Results reported in patent US10220039B2, “Method of treating polycystic kidney diseases with ceramide derivatives” (Genzyme Corporation, priority 2007, dated 2019).

Tested on: jck mice
Assay: jck mouse model of polycystic kidney disease, 0.225% Compound A in feed, 26-64 days of age
Format: in vivo
Details: for K/BW ratio (%) / Body weight / BUN / Cystic volume (% BW): treated, 26-64 days of age; for K/BW ratio (%) / Body weight: 0.225% in feed ad libitum; for Body weight: at sacrifice; for BUN / Cystic volume (% BW): 0.225% in feed; for Cystic volume (% BW): percentage cystic area multiplied by kidney/body weight ratio
Protocol: jck mice was administered Compound A ad libitum in feed (0.225% Compound A mixed with a standard diet chow in powdered format) from 26-64 days of age. Control jck mice were fed a control powdered diet from 26-64 days of age. At 63 days of age, animals were transferred to metabolic cages for 24 hour urine collection. At 64 days of age, animals were sacrificed by CO2 administration. Blood was collected by heart puncture for serum isolation. Kidneys were isolated and bisected; half of each kidney was fixed in 4% paraformaldehyde in PBS overnight for paraffin embedding and H&E staining.
Total body weight and kidney weight were determined at sacrifice.
Cyst volume was measured by quantitating the percentage of cystic area in histological sections of kidneys from the treated and control animals, multiplied by the kidney/body weight ratio.
Blood urea nitrogen (BUN) levels were determined in serum samples derived from animals at sacrifice.

[1] = treated vs control jck mice, p-value<0.05, two-tailed t-test

Structure (SMILES): CCCCCCCCC(=O)N[C@H](CN1CCCC1)[C@H](O)c1ccc2c(c1)OCCO2 [Compound A, N-((1R,2R)-1-(2,3-dihydrobenzo[1,4|]dioxin-6-yl)-1-hydroxy-3-(pyrrolidin-1-yl)propan-2-yl)nonanamide]
- K/BW ratio (%) (female jck mice): 3.57 ± 0.58 %
- Body weight (female jck mice): 15.93 ± 1.65 g
- BUN (female jck mice, serum at sacrifice): 34.67 ± 9.41 mg/dL
- Cystic volume (% BW) (female jck mice): 0.58 ± 0.29 % BW
- cystic disease, as measured by kidney/body weight ratio and cyst volume (in feed at 0.225%, both males and females): statistically significant reduction
- PKD in a mouse model (jck mice): Effectively Inhibited PKD
- K/BW ratio (%) (male jck mice): 4.46 ± 0.46 %
- Body weight (male jck mice): 18.43 ± 1.82 g
- BUN (male jck mice, serum at sacrifice): 39.25 ± 10.70 mg/dL
- Cystic volume (% BW) (male jck mice): 0.88 ± 0.23 % BW
- renal function (treated animals relative to controls, in feed at 0.225%, both males and females): improved renal function
- cyst volume [1]: significant decrease
- kidney weight/body weight ratio [1]: significant difference
- total body weight [1]: statistically significant decrease
- BUN levels (treated vs untreated control jck mice, serum at sacrifice, p-value<0.05, two-tailed t-test): significant reduction
